{"source": "patent US8173392B2", "about": "“In vivo incorporation of unnatural amino acids” (The Scripps Research Institute, priority 2001, dated 2012)", "molecules": {"B1": {"name": "mutant TyrRS (LWJ16) (protein, listed as Methanococcus jannaschii)", "chain": "MDEFEMIKRNTSEIISEEELREVLKKDEKSAQIGFEPSGKIHLGHYLQIKKMIDLQNAGFDIIILLADLHAYLNQKGELDEIRKIGDYNKKVFEAMGLKAKYVYGSTFQLDKDYTLNVYRLALKTTLKRARRSMELIAREDENPKVAEVIYPIMQVNAIHYPGVDVAVGGMEQRKIHMLARELLPKKVVCIHNPVLTGLDGEGKMSSSKGNFIAVDDSPEEIRAKIKKAYCPAGVVEGNPIMEIAKYFLEYPLTIKRPEKFGGDLTVSSYEELESLFKNKELHPMDLKNAVAEELIKILEPIRKRL"}, "B2": {"name": "OAT-RS (1): O-allyl-tyrosine synthetase clone from positive selection and negative FACS screening (protein, listed as Methanococcus jannaschii)", "chain": "B1 chain with Q32S, A158T, I159Y, P162A, S268N"}}, "key": {"E. coli": {"system": "E. coli", "assay": "effect of the amino acid on growth rate of E. coli", "format": "cell-based", "conditions": "1 mM", "description": "Following the two rounds of selection and DNA shuffling, a clone (mutant TyrRS (LWJ16)) was evolved whose survival in chloramphenicol was dependent on the addition of 1 mM O-methyl-L-tyrosine to the growth media. In the absence of O-methyl-L-tyrosine, cells harboring the mutant TyrRS (LWJ16) were not viable on minimal media plates containing 1% glycerol, 0.3 mM leucine (GMML), and 15 micrograms/mL of chloramphenicol. Cells were able to grow on GMML plates with 125 micrograms/mL chloramphenicol in the presence of 1 mM O-methyl-L-tyrosine. Similar results were obtained in liquid GMML."}, "mutant TyrRS (LWJ16)": {"target": "T1, mutant TyrRS (LWJ16) (Methanocaldococcus jannaschii, UniProt Q57834, D158A/E107T/L162P/N268S/Y32Q)", "T1 construct": "The mutant TyrRS (LWJ16) gene with six histidines at its C-terminus was cloned into plasmid pQE-60; His6 (C); made in house", "assay": "pyrophosphate-exchange assay (adenylate formation with ATP)", "format": "biochemical, M. jannaschii", "conditions": "for Kcat / Km: 37° C., pH7.5", "description": "Kinetics of adenylate formation of O-methyl-L-tyrosine and tyrosine with ATP catalyzed by the mutant TyrRS (LWJ16) were analyzed in vitro using a pyrophosphate-exchange assay. The mutant TyrRS (LWJ16) gene with six histidines at its C-terminus was cloned into plasmid pQE-60 (Qiagen, CA) to afford plasmid pQE-mJYRS. Protein was purified by immobilized metal affinity chromatography according to manufacture's protocol (Qiagen, CA). Pyrophosphate (PPi) exchange was carried out at 37° C. in a reaction mixture containing 100 mM Tris HCl (pH7.5), 10 mM KF, 5 mM MgCl2, 2 mM ATP, 2 mM NaPPi, 0.1 mg/mL bovine serum albumin, approximately 0.01 microCi/mL [32P]NaPPi, and various concentrations of tyrosine or O-methyl-L-tyrosine. Reactions were initiated with the addition of the purified mutant TyrRS (LWJ16), and aliquots were periodically taken and quenched with 0.2 M NaPPi, 7% perchloric acid, and 2% activated charcoal. The charcoal was filtered and washed with 10 mM NaPPi (pH2), then measured by scintillation counting to determine the 32P levels in charcoal-adsorbed ATP. Values of kcat and Km were calculated by direct fitting of the Michaelis-Menten equation using nonlinear regression analysis."}, "[1]": {"system": "cells expressing m-acetyl phenylalanine-incorporated DHFR", "method": "Cells expressing the “ketone handle”-incorporated DHFR were incubated with fluorescein hydrazide solution. After 36 hours at 4° C. and extensive washes to remove excess fluorescein hydrazide, the labeled DHFR protein was purified and subjected to fluorescence emission tests. As a negative control in parallel, m-methoxy phenylalanine-incorporated DHFR was also purified with the same procedures."}, "[2]": {"system": "yeast amber suppressor tRNAPheCUA/phenylalanyl-tRNA synthetase pair", "conditions": "cited from earlier work"}, "[3]": {"system": "valine positions, mutant ValRS", "conditions": "mutant E. coli strain grown in presence of Abu; cited from earlier work"}, "SjGST homodimer": {"system": "SjGST homodimer", "assay": "photo-activated crosslinking of SjGST (365 nm, SDS-PAGE)", "set-up": "species or system Schistosoma Japonica", "conditions": "long wavelength UV irradiation, 5 minutes", "text": "In vivo incorporation of pBpa into GST. […] This protein is a dimer of two identical subunits which have previously been crosslinked non-specifically using gluteraldehyde. The crystal structure of the dimeric Schistosoma Japonica glutathione-S-transferase (SjGST) (McTigue, M. A., Williams, D. R. & Tainer, J. A. Journal of Molecular Biology 246, 21-27 (1995)) was used to identify two sites to substitute with pBp: residue Phe52, which is buried in the dimer interface of the crystal structure, and residue Tyr198 which is solvent exposed. The codons corresponding to Phe52 or Tyr198 in the gene for a 27 kDa protein Sj GST, were replaced with amber codons. The orthogonal synthetase tRNA pair was then used to site specifically incorporate pBpa into SjGST in E. coli at these sites. Upon irradiation with long wavelength ultraviolet radiation, purified SjGST was converted to a covalently linked homodimer as judged by denaturing SDS PAGE. Approximately 70% of the SjGST present was crosslinked in 5 minutes.\nPhoto-activated crosslinking. Crosslinking reactions were performed in a 96 well microtitre plate (Nuncsorb) using 100 μL of 10 ng/μL SjGST (in 50 mM NaH2Po4, 300 mM NaCl, 250 mM imidazole) at 4° C. Samples were irradiated at 365 nm using a handheld UV lamp (1 SV, 60 Hz, 0.2 A; Spectronics, NY, USA), for 1 min or 5 min. […]"}, "[4]": {"system": "Asp112TAG codon in the CAT gene", "assay": "in vivo chloramphenicol acetyltransferase assay (suppression of Asp112TAG codon in CAT gene, pYC-J17)", "format": "cell-based, E. coli", "conditions": "GMML plates", "description": "A positive selection was then applied that is based on suppression of an amber stop codon at a nonessential position (Asp112) in the chloramphenicol acetyltransferase (CAT) gene (M. Pastrnak, T. J. Magliery, P. G. Schultz, Helvetica Chimica Acta. 83, 2277-86 (2000)). Cells were grown in media containing the unnatural amino acid and selected for their survival in the presence of various concentration of chloramphenicol. If a mutant TyrRS charges the orthogonal mtRNACUA^Tyr with any amino acid, either natural or unnatural, the cell produces CAT and survives.\nThe gene encoding mtRNACUA^Tyr under the control of the lpp promoter and rrnC terminator was inserted into plasmid pACMD112TAG (a pACYC184 plasmid with a TAG stop codon replacing Asp112 in its CAT gene (M. Pastrnak, T. J. Magliery, P. G. Schultz, Helvetica Chimica Acta. 83, 2277-86 (2000))) to afford plasmid pYC-J17. Supercoiled DNA encoding the TyrRS library was transformed into E. coli DH10B competent cells containing pYC-J17 to yield a library of size greater than 3×10^9 cfu, ensuring complete coverage of the original library. Cells were then plated on minimal media plates containing 1% glycerol and 0.3 mM leucine (GMML) with 17 micrograms/mL tetracycline(Tet), 25 micrograms/mL kanamycin (Kan), 50 micrograms/mL of chloramphenicol (Cm), and 1 mM unnatural amino acid. […]"}, "[5]": {"system": "amber codons in T7 RNA polymerase gene driving GFPuv", "assay": "fluorimetric analysis, T7 RNA polymerase/GFPuv reporter (pREP/YC-JYCUA)", "format": "cell-based, E. coli", "conditions": "presence versus absence of OAT", "description": "Construction of a multipurpose reporter plasmid. In order to construct a multipurpose plasmid to be used both for selecting and screening variants of a M. jannaschii TyrRS, plasmid pREP(10) was combined with plasmid pYC-J17 (Wang, L, Brock, A., Herberich, B. & Schultz, P. G., Science, 2001, 292, 498-500) to obtain pREP/YC-JYCUA (FIG. 7b). Plasmid pREP/YC-JYCUA was assayed for function with a compatible plasmid expressing a variant of M. jannaschii TyrRS (pBK-mJYRS; Wang, L, Brock, A., Herberich, B. & Schultz, P. G., Science, 2001, 292, 498-500) selective for incorporating O-Methyl-Tyrosine (OMY).\nAs described above, the T7 RNA polymerase/GFP system can be used to quantitatively compare the activities of synthetase variants. […] The fluorescence enhancement for cells grown in the presence versus the absence of the unnatural amino acid is thus about 6-fold higher for cells expressing OAT-RS (1) from selection and screening than for cells expressing the OAT-RS clone derived from positive/negative selection using barnase. […] However, the fluorescence enhancement for cells grown in the presence versus the absence of an unnatural amino acid is expected to represent a lower limit for the fidelity of unnatural amino acid incorporation, as competition of unnatural amino acids for being bound by an evolved synthetase variant would reduce binding of natural amino acids. […]"}}, "note": "Substitutions are numbered along the chain they refer to."}
{"molecule": "COc1ccc(C[C@H](N)C(=O)O)cc1", "note": "[O-methyl-L-tyrosine]", "values": [{"measurement": "effect on growth rate of E. coli", "setting": "E. coli", "result": "does not significantly affect the growth rate"}, {"measurement": "kcat/Km higher than that of tyrosine", "setting": "mutant TyrRS (LWJ16)", "result": "about 100 fold"}, {"measurement": "Kcat", "setting": "mutant TyrRS (LWJ16)", "result": "14 ± 1 10 − 3 s − 1"}, {"measurement": "Km", "setting": "mutant TyrRS (LWJ16)", "result": 0.443, "unit": "mM"}]}
{"molecule": "NN1C(=O)c2ccccc2C12c1ccc(O)cc1Oc1cc(O)ccc12", "note": "[fluorescein hydrazide]", "values": [{"measurement": "cell permeability", "setting": "[1]", "result": "cell-permeable"}, {"measurement": "lysis of cells", "setting": "[1]", "result": "does not lyse cells"}]}
{"molecule": "N[C@@H](Cc1ccc(O)cc1)C(=O)O", "note": "[L-tyrosine]", "values": [{"measurement": "Km higher than that for O-methyl-L-tyrosine", "setting": "mutant TyrRS (LWJ16)", "result": "approximately 13 fold"}, {"measurement": "kcat down relative to that for O-methyl-L-tyrosine", "setting": "mutant TyrRS (LWJ16)", "result": 8, "unit": "fold"}, {"measurement": "Kcat", "setting": "mutant TyrRS (LWJ16)", "result": "1.8 ± 0.2 10 − 3 s − 1"}, {"measurement": "Km", "setting": "mutant TyrRS (LWJ16)", "result": 5.83, "unit": "mM"}]}
{"molecule": "N[C@@H](Cc1ccc(F)cc1)C(=O)O", "note": "[p-F-Phe, p-fluorophenylalanine]", "values": [{"measurement": "amino acid found at the Phe codon positions", "setting": "[2]", "result": 7, "unit": "%"}, {"measurement": "translation of the mutagenesis site with the amino acid", "setting": "[2]; excess of p-F-Phe in growth media", "result": "64-75%"}]}
{"molecule": "CCC(N)C(=O)O", "note": "(centres unmarked) [Abu, aminobutyrate]", "values": [{"measurement": "valines replaced at each valine position in the native protein", "setting": "[3]", "result": "about 24%"}]}
{"molecule": "SjGST: Schistosoma Japonica glutathione-S-transferase with pBpa, presumably at Phe52 in the dimer interface", "values": [{"measurement": "SjGST crosslinked to covalent homodimer", "setting": "SjGST homodimer", "result": "Approximately 70%"}]}
{"molecule": "B1", "values": [{"measurement": "chloramphenicol concentration at which cells were not viable", "setting": "[4]; absence of O-methyl-L-tyrosine", "result": 15, "unit": "micrograms/mL"}, {"measurement": "chloramphenicol concentration at which cells were able to grow", "setting": "[4]; presence of 1 mM O-methyl-L-tyrosine", "result": 125, "unit": "micrograms/mL"}]}
{"molecule": "B2", "values": [{"measurement": "fluorescence enhancement higher than for OAT-RS clone from positive/negative selection using barnase", "setting": "[5]", "result": "about 6 fold"}]}
